Data published in patent publication US20230303584A1, “4,5,6,7-TETRAHYDROTHIENO[2,3-C]PYRIDINE SUMO INHIBITORS AND USES THEREOF” (SUVALENT THERAPEUTICS INC., priority 2020, published 2023).

How the values were obtained:
[1] = tested on: SUMO 2/3 conjugates (sumoylation levels) in HCT-116 cells; assay: HCT-116 4 hour cell assay, immunoblot of SUMO 2/3 conjugates; assay type: cell-based; settings: 4 h treatment, Western blot, read-out: Cell HCT-116 Western SUMO 2/3 4 h IC50 (uM) Ave
Description: This protocol describes the procedures used to assess the effects of compounds of interest on sumoylation levels. Immunoblot of SUMO ⅔ conjugates are performed and IC50 curves are generated upon quantification of sumoylations bands. HCT-1 16 cells are seeded in a 12 well plate (500,000 cells/well). The following day the cells are treated with compounds of interest (resuspended in DMSO) for 4 hours (11 concentrations with a three-fold dilution; starting concentration 25 µM) Following 4 hours of incubation the cells are washed with ice cold PBS 1X and protein extraction is performed with RIPA buffer supplemented with phosphatases and proteases inhibitors, 25 mM of NEM and 50 units/mL of Benzonase . Samples undergo centrifugation at 13,000 RPM, 4° C., for 10 minutes and the supernatant is collected. Protein quantification is performed using BCA. Non-Reducing Laemmli Buffer is added to the samples. Samples are heated at 75° C. for 10 minutes, and are centrifuged for 3 minutes at 9000 RPM Nupage 4-12% Bis Tris gels and 1x MOPS buffer (Fisher Scientific) + 1x NuPAGE Antioxidant (Invitrogen) are used to perform the SDS-PAGE gel electrophoresis (20 to 40 µg of proteins are loaded in the gels). Proteins are then transferred to PVDF membranes and the level of total proteins are measured by staining with Revert Total Protein Stain and the fluorescent bands are acquired using the LI-COR FC (700 nm for 1 min) Membranes are blocked for 5 minutes with Bio-Rad Blocking Buffer and are subsequently incubated over night at 4° C. with Anti-Sumo 2-3 mAb (MBL #M114-3, 1:1000 in Bio-Rad Blocking Buffer, 0.2% Tween 20) Membranes are washed with 1X TBS-T (3 times for 5 minutes) and sumoylation is detected using Li-cor IRDye 800CW Goat anti-Mouse IgG secondary antibody (1:10,000 dilution) upon 1 hour of incubation in blocking buffer with 0.2% Tween 20 and 0.01% SDS. After the incubation, the membranes are washed with 1X TBS-T (3 times for 5 minutes). To visualize the fluorescent bands the membranes are scanned with LI-COR FC (700 nm for 1 min and […] for 2 mins) Sumoylation levels are quantified upon normalization with total protein levels, using the LI-COR Image Studio Lite 5.2 Software.

SAE1 = SAE1 (Homo sapiens (Human), UniProt Q9UBT2); assay: SAE high throughput biochemical (HTRF) assay; settings: 15 min preincubation; 100 µM ATP; read-out: 15 min preincubation HTRF IC50 (uM) Ave
Chain of SAE1 (Q9UBE0 whole entry partner): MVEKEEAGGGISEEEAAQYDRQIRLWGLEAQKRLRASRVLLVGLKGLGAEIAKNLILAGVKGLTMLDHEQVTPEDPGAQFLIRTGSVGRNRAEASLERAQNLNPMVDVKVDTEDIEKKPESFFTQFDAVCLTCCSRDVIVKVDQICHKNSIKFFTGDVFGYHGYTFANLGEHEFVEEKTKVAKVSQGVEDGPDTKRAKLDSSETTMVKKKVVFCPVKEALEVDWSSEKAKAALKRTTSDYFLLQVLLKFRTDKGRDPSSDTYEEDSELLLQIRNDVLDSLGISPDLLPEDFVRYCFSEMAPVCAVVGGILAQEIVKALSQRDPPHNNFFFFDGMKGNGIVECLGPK
Chain of SAE1 (Q9UBT2 whole entry): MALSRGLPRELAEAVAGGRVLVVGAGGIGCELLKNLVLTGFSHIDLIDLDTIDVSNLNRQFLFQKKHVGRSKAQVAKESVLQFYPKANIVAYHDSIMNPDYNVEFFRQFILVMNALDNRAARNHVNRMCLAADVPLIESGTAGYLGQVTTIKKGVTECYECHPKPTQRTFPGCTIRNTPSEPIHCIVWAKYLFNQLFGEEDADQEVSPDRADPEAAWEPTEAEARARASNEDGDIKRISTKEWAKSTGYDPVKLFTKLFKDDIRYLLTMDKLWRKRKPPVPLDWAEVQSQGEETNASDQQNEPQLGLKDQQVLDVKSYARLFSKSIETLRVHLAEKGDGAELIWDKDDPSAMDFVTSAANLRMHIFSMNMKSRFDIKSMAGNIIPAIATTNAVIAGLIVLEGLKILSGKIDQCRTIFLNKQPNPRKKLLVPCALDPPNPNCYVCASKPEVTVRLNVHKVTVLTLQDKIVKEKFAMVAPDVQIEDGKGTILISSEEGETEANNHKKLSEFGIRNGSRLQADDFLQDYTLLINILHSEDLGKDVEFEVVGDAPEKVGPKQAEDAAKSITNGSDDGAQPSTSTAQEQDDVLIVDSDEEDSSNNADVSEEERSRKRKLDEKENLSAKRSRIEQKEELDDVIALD
Description: Assay buffer was prepared [50 mM HEPES, pH 7.5, 0.1% BSA and 10 mM MgCl2] as was the Stop Buffer [100 mM HEPES, pH 7.5, 0.05% Tween20, and 410 mM KF]. The 2x Reaction Buffer [80 nM SUMO-GST, 80 nM UBC9-His, 200 µM ATP and diluted in Assay Buffer] and Antibody Reaction Mix [13.34 nM anti-GST XL665, 1.66 nM anti-His EuK and Diluted in Stop Buffer] were also prepared. Compounds were dissolved at 200x in DMSO in a 384-well plate. Serial dilutions were performed in DMSO for each compound, and then each concentration was diluted another 50-fold in Assay Buffer, to 4x the final concentration. 2.5 µL of each concentration was transferred into its own well in a 384-well plate. SAE1 was then diluted to 4x in Assay Buffer, and 2.5 µL of 4x SAE1 was mixed into each compound-containing well. After incubating for 15 minutes at room temperature, 5 µL of 2x Reaction Buffer was mixed into every well. Then after another 45 minutes at room temperature, 10 µL of Antibody Reaction Mix was added and mixed into every well. This plate was then read on an HTRF-compatible plate reader after 2 hours at room temperature, and again after sitting at room temperature overnight. [Final Component Concentrations: SAE1: 12.5 nM; SUMO-GST: 40 nM; UBC9-His: 40 nM; Anti-GST-XL665: 6.67 nM; Anti-His-EuK: 0.83 nM; and ATP: 100 µM ] Alternatively, the compounds are tested at a single concentration of 25 micromolar and the percent of control is measured.

[2] = target: SUMO activating enzyme (E1) (Homo sapiens (Human), UniProt Q9UBT2); assay: Inhibitory effect on activating enzyme (E1), 15 min preincubation (Table 2); assay type: biochemical; settings: enzyme preincubated with compound for 15 minutes; read-out: E1 biological activity
Chain of SUMO activating enzyme (E1) (Q9UBT2 whole entry): as above
Chain of SUMO activating enzyme (E1) (Q9UBE0 whole entry partner): as the sequence (Q9UBE0 whole entry partner) above
Description: Compounds are evaluated for their inhibitory effect on activating enzymes (E1) of ubiquitin, SUMO, Nedd8, Urm1, ISG15 or Atg7 using previously reported methods and protocols. One example is in: Allosteric inhibition of ubiquitin-like modifications by a class of inhibitor of SUMO-activating enzyme. Cell Chemical Biology, 26,1-11, 2019. PMID: 28051857. The enzyme was preincubated with the compounds for 15 minutes.

| Compound | IC50 [1] | IC50 (SAE1) | IC50 [2] |
| --- | --- | --- | --- |
| C=CC(=O)N1Cc2sc(C(=C)C)cc2[C@H](c2ccccc2-c2cn(CC)nc2C(F)(F)F)C1 [Compound 318] | 0.33 µM | 0.29 µM | – |
| C=CC(=O)N1Cc2sc(Cl)cc2[C@H](c2ccccc2-c2cn(C(C)(C)C(N)=O)nc2C(F)(F)F)C1 [Compound 312] | 0.28 µM | 0.23 µM | < 10000 nM |
| C=CC(=O)N1Cc2sc(-c3ccco3)cc2[C@H](c2ccccc2-c2cn(CC)nc2C(F)(F)F)C1 [Compound 324] | 0.34 µM | 0.14 µM | – |
| C=CC(=O)N1Cc2sc(Cl)cc2[C@H](c2ccccc2-c2cnn(CC)c2CC)C1 [Compound 360] | 13.6 µM | 4.33 µM | – |
| C=CC(=O)N1Cc2sc(Cl)cc2[C@H](c2ccccc2-c2cn(C(C)C)nc2C(F)(F)F)C1 [Compound 255] | – | – | < 10000 nM |
| CCn1cc(-c2ccccc2[C@@H]2CN(C(=O)/C=C/CF)Cc3sc(Cl)cc32)c(C(F)(F)F)n1 [Compound 323] | 0.39 µM | 0.13 µM | – |
| C=CC(=O)N1Cc2sc(Cl)cc2C(c2ccccc2-c2cn(-c3ccncc3Cl)nc2C(F)(F)F)C1 (stereo not shown) [Compound 340] | – | 0.93 µM | – |
